PMC7755424 (Journal of medicinal chemistry, 2020)
In brackets after ≈: the same amount, converted by molar mass. Each block holds one compound with its values, some of them ahead of it.

Key:
human sEH = target: T1, human sEH (Homo sapiens, UniProt P34913); assay: sEH inhibition, fluorescent-based assay; type: biochemical; conditions: for reduction of the potency (hsEH) relative to 12: compared with 12
T1 sequence (P34913 1-555): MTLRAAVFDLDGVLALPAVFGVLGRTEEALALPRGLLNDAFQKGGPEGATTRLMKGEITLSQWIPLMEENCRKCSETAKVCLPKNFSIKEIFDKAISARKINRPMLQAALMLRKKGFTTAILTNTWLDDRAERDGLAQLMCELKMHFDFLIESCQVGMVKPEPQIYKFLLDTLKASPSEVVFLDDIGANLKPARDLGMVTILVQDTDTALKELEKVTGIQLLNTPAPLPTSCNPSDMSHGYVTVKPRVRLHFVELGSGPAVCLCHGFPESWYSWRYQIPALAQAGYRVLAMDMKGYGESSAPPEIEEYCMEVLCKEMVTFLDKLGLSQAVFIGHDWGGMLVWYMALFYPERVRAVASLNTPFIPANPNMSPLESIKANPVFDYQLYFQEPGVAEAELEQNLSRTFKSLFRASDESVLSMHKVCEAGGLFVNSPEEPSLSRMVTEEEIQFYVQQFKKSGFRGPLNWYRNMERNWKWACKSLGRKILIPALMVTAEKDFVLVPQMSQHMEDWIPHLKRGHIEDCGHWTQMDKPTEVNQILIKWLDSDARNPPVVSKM

[1] = Solubility by light scattering; type: physicochemical; conditions: 1% DMSO:99% PBS buffer
[2] = system: human recombinant cytochrome P450 enzymes, mainly CYP1A2, CYP2C9, CYP2C19, CYP2D6 and CYP3AE; assay: Cytochrome P450 inhibition assay; type: in vitro ADME
hERG channel = hERG channel (Homo sapiens, UniProt Q12809); assay: hERG inhibition; conditions: at 10 μM
[3] = system: Peripheral Blood Mononuclear Cells (PBMC); assay: Cytotoxicity in PBMCs cells + 1.5% PHA; type: cell-based; conditions: highest concentration tested (20 μM)
hLOX-5 = target: T2, hLOX-5 (Homo sapiens, UniProt P09917); assay: Inhibition of human lipoxygenase-5; type: biochemical; conditions: selectivity
T2 sequence (P09917 1-674): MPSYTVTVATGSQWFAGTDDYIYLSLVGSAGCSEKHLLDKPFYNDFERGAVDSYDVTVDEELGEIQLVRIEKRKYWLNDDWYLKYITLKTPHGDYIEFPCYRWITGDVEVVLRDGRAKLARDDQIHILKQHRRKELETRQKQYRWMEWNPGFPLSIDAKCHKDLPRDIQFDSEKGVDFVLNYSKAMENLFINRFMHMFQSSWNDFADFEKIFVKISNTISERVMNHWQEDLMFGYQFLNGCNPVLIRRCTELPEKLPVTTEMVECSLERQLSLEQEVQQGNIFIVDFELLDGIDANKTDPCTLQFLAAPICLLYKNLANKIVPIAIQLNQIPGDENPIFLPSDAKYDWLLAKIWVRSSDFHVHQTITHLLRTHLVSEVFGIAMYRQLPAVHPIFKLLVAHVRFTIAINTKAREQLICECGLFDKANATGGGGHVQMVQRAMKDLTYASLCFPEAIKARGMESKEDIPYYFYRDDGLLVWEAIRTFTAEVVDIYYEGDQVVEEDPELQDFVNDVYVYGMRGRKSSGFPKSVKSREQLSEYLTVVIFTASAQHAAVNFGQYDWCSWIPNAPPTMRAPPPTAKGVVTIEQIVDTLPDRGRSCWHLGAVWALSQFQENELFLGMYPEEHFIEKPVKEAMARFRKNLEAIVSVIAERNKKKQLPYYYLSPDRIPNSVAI

[4] = Maximum tolerated dose study; type: in vivo; conditions: mice, ip daily, 5, 10, 20 and 80 mg/kg, five consecutive days
cerulein-induced AP [5] = assay: In vivo efficacy, cerulein-induced AP, pre-induction; set-up: species or system C57BL/6J mice
cerulein-induced AP [6] = assay: In vivo efficacy, cerulein-induced AP, post-induction; set-up: species or system C57BL/6J mice; conditions: for inflammatory (TNF-α, IL-1β and MCP-1) and ER stress (ATF3) markers mRNA: post-induction, vs cerulein only
[7] = Pharmacokinetic study in mouse; conditions: IP, 1 mg/kg
[8] = system: AR42J pancreatic acinar rat cell line; assay: In vitro proof of concept: cerulein-induced AP in AR42J cells; type: cell-based; conditions: 60 μM, cerulein 10 nM

Chain of hERG channel (Q12809 whole entry): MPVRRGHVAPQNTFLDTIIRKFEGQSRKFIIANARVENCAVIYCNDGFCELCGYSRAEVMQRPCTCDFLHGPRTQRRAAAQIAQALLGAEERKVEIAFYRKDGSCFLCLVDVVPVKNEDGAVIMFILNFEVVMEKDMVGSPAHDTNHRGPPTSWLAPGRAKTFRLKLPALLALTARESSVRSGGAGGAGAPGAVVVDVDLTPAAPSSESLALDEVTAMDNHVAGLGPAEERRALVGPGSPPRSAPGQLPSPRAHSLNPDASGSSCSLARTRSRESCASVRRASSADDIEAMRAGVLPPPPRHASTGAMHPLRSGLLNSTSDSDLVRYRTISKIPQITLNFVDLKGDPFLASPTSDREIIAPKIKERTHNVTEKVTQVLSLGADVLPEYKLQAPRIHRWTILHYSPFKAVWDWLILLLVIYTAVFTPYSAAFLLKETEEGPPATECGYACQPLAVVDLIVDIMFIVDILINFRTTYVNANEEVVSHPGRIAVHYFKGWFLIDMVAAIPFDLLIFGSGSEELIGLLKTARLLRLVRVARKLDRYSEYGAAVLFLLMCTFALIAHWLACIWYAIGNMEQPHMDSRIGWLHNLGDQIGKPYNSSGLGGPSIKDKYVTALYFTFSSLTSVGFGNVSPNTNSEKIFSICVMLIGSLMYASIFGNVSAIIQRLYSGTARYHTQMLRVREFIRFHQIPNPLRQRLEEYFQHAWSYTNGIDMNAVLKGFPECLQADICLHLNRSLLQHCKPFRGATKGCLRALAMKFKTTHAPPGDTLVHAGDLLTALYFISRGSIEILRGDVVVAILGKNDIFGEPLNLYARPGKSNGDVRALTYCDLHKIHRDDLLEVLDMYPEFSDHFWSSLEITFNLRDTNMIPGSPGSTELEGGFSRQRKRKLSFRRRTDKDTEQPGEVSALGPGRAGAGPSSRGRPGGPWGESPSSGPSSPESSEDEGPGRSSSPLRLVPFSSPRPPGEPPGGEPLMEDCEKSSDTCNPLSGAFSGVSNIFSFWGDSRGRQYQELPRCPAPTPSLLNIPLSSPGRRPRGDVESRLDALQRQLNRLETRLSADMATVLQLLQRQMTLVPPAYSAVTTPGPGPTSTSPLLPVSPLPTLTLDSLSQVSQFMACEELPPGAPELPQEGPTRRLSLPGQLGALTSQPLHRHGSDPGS

Compound: O=C(NC1CCN(C(=O)C2CC2)CC1)NC12CC3CC(CC(C3)O1)C2 [Compound 23, 1-(2-Oxaadamant-1-yl)-3-(1-(cyclopropanecarbonyl)-piperidin-4-yl)urea]
- reduction of the potency (hsEH) relative to 12 (human sEH): 10–15 fold

- IC50 (human sEH): 47.4 nM
Compound: O=C(Nc1ccc(F)c(F)c1F)NC12CC3CC(C1)OC(C3)C2 [Compound 4, 1-(2-oxaadamant-5-yl)-3-(2,3,4-trifluorophenyl)urea]

- solubility at 2 h [1]: 24 µM (≈ 7.67 µg/mL)
Compound: CC(=O)N1CCC(NC(=O)NC23CC4CC(CC(C4)C2)C3)CC1 [Compound 1, 1-(1-Acetyl-piperidin-4-yl)-3-adamantan-1-yl-urea]

Compound: O=C(NC1CCN(C(=O)C2CCOCC2)CC1)NC12CC3CC(CC(C3)O1)C2 [Compound 19, 1-(2-Oxaadamant-1-yl)-3-(1-(tetrahydro-2H-pyran-4-carbonyl)piperidin-4-yl)urea]
- reduction of the potency (hsEH) relative to 12 (human sEH): 10–15 fold

Compound: CS(=O)(=O)N1CCC(NC(=O)NC23CC4CC(CC(C4)O2)C3)CC1 [Compound 26, 1-(2-Oxaadamantan-1-yl)-3-(1-(methylsulfonyl)piperidin-4-yl)urea]
- reduction of the potency (hsEH) relative to 12 (human sEH): eight

Compound: CC(=O)N1CCC(NC(=O)NC23CC4CC(CC(C4)O2)C3)CC1 [Compound 12, 1-(1-acetylpiperidin-4-yl)-3-(oxaadamant-1-yl)urea]
- potency inhibiting the different cytochromes tested [2]: higher than 10 μM
- inhibition on hERG (hERG channel): minimal inhibition
- cytotoxicity in the PBMC [3]: not cytotoxic

Compound: O=C(NC1CCN(Cc2ccccc2)CC1)NC12CC3CC(CC(C3)O1)C2 [Compound 15, 1-(2-Oxaadamant-1-yl)-3-(1-benzylpiperidin-4-yl)urea]
- reduction of the potency (hsEH) relative to 12 (human sEH): ~40 fold

Compound: O=C(NC1CCN(C(=O)c2cccnc2)CC1)NC12CC3CC(CC(C3)O1)C2 [Compound 20, 1-(2-Oxaadamant-1-yl)-3-(1-nicotinoylpiperidin-4-yl)urea]
- drop in inhibitory activity (hsEH) relative to 21 (human sEH; 3-pyridyl vs 2-fluorophenyl (21)): 3 folds

- IC50 (human sEH): 31.3 nM
Compound: O=C(Nc1ccc(F)c(F)c1F)NC12OC3C4C5CC(C6C5C3C61)C42 (stereo not shown) [Compound 9, 1-(4-oxahexacyclo[5.4.1.0^2,6.0^3,10.0^5,9.0^8,11]dodecan-3-yl)-3-(2,3,4-trifluorophenyl)urea]

Compound: O=C(NC1CCN(C(=O)c2ccccc2F)CC1)NC12CC3CC(CC(C3)O1)C2 [Compound 21, 1-(2-Oxaadamant-1-yl)-3-(1-(2-fluorobenzoyl)piperidin-4-yl)urea]
- inhibition of hLOX-5 (hLOX-5): displayed significant inhibition
- cytotoxicity in the PBMC [3]: not cytotoxic

Compound: CCC(=O)N1CCC(NC(=O)NC23CC4CC(CC(C4)O2)C3)CC1 [Compound 24, 1-(2-Oxaadamantan-1-yl)-3-(1-propionylpiperidin-4-yl)urea]
- inhibition of hLOX-5 (hLOX-5): displayed significant inhibition
- reduction of the potency (hsEH) relative to 12 (human sEH): 10–15 fold

Compound: CC(C)S(=O)(=O)N1CCC(NC(=O)NC23CC4CC(CC(C4)O2)C3)CC1 [Compound 22, 1-(2-Oxaadamant-1-yl)-3-(1-(isopropylsulfonyl)piperidin-4-yl)urea]
- toxic effects (body weight, behavior problems, petechiae) [4]: No toxic effects were observed
- inhibition of hLOX-5 (hLOX-5): displayed significant inhibition
- increase of inflammatory (TNF-α, IL1-β and MCP-1) and ER stress (ATF3) markers produced by cerulein (cerulein-induced AP [5]; pre-induction, 30 mg/kg): significantly reduced
- cerulein-induced edema and inflammation (H&E histology) (cerulein-induced AP [5]; treated before the induction of AP): significant decrease
- inflammatory (TNF-α, IL-1β and MCP-1) and ER stress (ATF3) markers mRNA (cerulein-induced AP [6]; 3 mg/kg): did not cause a significant reduction
- inflammatory (TNF-α, IL-1β and MCP-1) and ER stress (ATF3) markers mRNA (cerulein-induced AP [6]; 30 mg/kg): significant reduction
- cerulein-induced edema and inflammation (H&E histology) (cerulein-induced AP [6]; treated after the induction of AP): significant decrease
- Cl [7]: 473.5 mL/min/kg
- potency inhibiting the different cytochromes tested [2]: higher than 10 μM
- inhibition on hERG (hERG channel): minimal inhibition
- increase in the expression of IL-6, CHOP and TRB3 caused by cerulein [8]: completely abolished
- increment in TNF-α caused by cerulein exposure [8]: strongly attenuated
- cytotoxicity in the PBMC [3]: not cytotoxic
